Assay results from patent US20090068290A1, “BIFEPRUNOX DOSES FOR TREATING SCHIZOPHRENIA” (priority 2006, published 2009).

Key:
Format in all cases: in vivo, human
[1] = tested on: adult subjects with schizophrenia; experiment: BPRS total score, Clinical Study Three; details: LOCF; for Change from Baseline in BPRS Total Score, Mean (SD) / Change from Baseline in BPRS Total Score, Median: Olanzapine 15 mg, ITT population
Source text: SECONDARY OBJECTIVES To assess the efficacy of bifeprunox in treating schizophrenia using the Positive Symptom sub-scale score of the PANSS, the Negative Symptom sub-scale score of the PANSS, the General Psychopathology sub-scale of the PANSS, Brief Psychiatric Rating Scale (BPRS) total score derived from the PANSS, BPRS psychosis score derived from the PANSS, the Clinical Global Impression Severity of Illness score (CGI-S), the Clinical Global Impression Improvement score (CGI-I), CGI-I responder rate, PANSS responder rate based on the PANSS total score, Calgary Depression Scale for Schizophrenia (CDSS), and Subject Satisfaction rating.
There were four treatment arms in this study, approximately 144 subjects per arm. […] After completing the Single-Blind Placebo Lead-in Period of at least three days, bifeprunox-treated subjects were titrated from 0.25 mg up to 20 mg/day or 30 mg/day according to a standardized titration scheme over a seven- or eight-day period, respectively. When the assigned dose was reached, subjects were maintained at that dose for the remainder of the six week treatment period. […] Subjects were hospitalized (if not already inpatients) after eligibility for study entry was verified, starting from the Screening Visit until at least 10 days after Baseline. Subjects could be hospitalized longer than 10 days if considered medically necessary by the Investigator. Rating scale assessments for efficacy and abnormal movement disorders were done weekly except for Week 5. […] Subject satisfaction with study medication was assessed at Week 6.

[2] = tested on: adult subjects with schizophrenia; experiment: PANSS positive symptom subscale score, Clinical Study Two; details: Risperidone 6 mg, LOCF, ITT
Method: (§1) Rating scale assessments were performed weekly, except for week 5, to measure the change from baseline to endpoint of the PANSS total score. Other assessments included: PANSS positive symptom subscale score, PANSS negative symptom subscale score, PANSS general pschopathology subscale score, BPRS total score, BPRS psychosis score, the CGI-S score, the CGI-I score, responder rates based on the PANSS total score, and the Calgary Depression Scale for Schizophrenia (CDSS). […]
(§2) Subjects who completed this study had the option to continue in the long-term. […] Risperidone-treated subjects were titrated from 2 mg to 6 mg daily over a three-day period and were subsequently maintained at 6 mg/day for the remainder of the treatment period. […] Blood samples were also obtained at Screening/Baseline, Week 3, and Week 6 for clinical laboratory assessments.

[3] = tested on: adult subjects with schizophrenia; experiment: CGI responder rate, Clinical Study Two; details: LOCF
Method: Notable differences were also observed between the 30 mg bifeprunox group and placebo for the change from baseline to endpoint in PANSS general psychopathology subscale score, BPRS total score, BPRS psychosis cluster score, PANSS responder rate, and CGI-I responder rate. In the study, a PANSS responder refers to a subject whose PANSS total score decreased by 20% or more from baseline to endpoint. A CGI-I responder refers to a subject who was categorized as “very much improved” or “much improved” in the CGI Global Improvement scale at endpoint.
Pharmacokinetic (PK) data of bifeprunox in schizophrenic subjects were also assessed and are presented in a separate report (combined with data from study S1543003).
as §2
CLINICAL STUDY TWO: A CGI responder is defined as a subject who is categorized as “very much improved” or “much improved” on the CGI Improvement scale. […] A notable difference between the 30 mg bifeprunox group and placebo was seen (p=0.039).

[4] = tested on: adult subjects with schizophrenia; experiment: CGI Improvement score, Clinical Study Two; details: 6 mg, LOCF
Method: as §1, §2

[5] = tested on: adult subjects with schizophrenia; experiment: BPRS psychosis cluster score, Clinical Study Two; details: LOCF; for Change from Baseline in BPRS Psychosis Cluster Score, Mean (SD) / Change from Baseline in BPRS Psychosis Cluster Score, Median: Risperidone 6 mg, ITT population
Method: as §1, §2

[6] = tested on: adult subjects with schizophrenia; experiment: PANSS general psychopathology subscale score, Clinical Study Two; details: LOCF; for Change from Baseline in General Psychopathology Subscale Score, Mean (SD) / Change from Baseline in General Psychopathology Subscale Score, Median: Risperidone 6 mg, ITT population
Method: as §1, §2

SMILES: Cc1cc2c(s1)Nc1ccccc1N=C2N1CCN(C)CC1 [Olanzapine, olanzapine, reference compound]
- Change from Baseline in BPRS Total Score, Mean (SD) ([1]; Week 1): −5.6 (6.7)
- Change from Baseline in BPRS Total Score, Median ([1]; Week 1): −4
- Change from Baseline in BPRS Total Score, Mean (SD) ([1]; Week 2): −8.9 (8.2)
- Change from Baseline in BPRS Total Score, Median ([1]; Week 2): −8
- Change from Baseline in BPRS Total Score, Mean (SD) ([1]; Week 3): −11.4 (9.3)
- Change from Baseline in BPRS Total Score, Median ([1]; Week 3): −11
- Change from Baseline in BPRS Total Score, Mean (SD) ([1]; Week 4): −12.0 (9.8)
- Change from Baseline in BPRS Total Score, Median ([1]; Week 4): −11
- Change from Baseline in BPRS Total Score, Mean (SD) ([1]; Week 6/Endpoint): −13.2 (10.7)
- Change from Baseline in BPRS Total Score, Median ([1]; Week 6/Endpoint): −12
- mean change (SD) from Baseline to Endpoint in BPRS total score ([1]; olanzapine 15 mg, ITT): −13.2 (10.7)

SMILES: Cc1nc2n(c(=O)c1CCN1CCC(c3noc4cc(F)ccc34)CC1)CCCC2 [Risperidone, risperidone, reference compound]
- Change from Baseline in PANSS Positive Symptom Subscale Score, Mean (SD) ([2]; Week 1): −3.3 (3.6)
- Change from Baseline in PANSS Positive Symptom Subscale Score, Median ([2]; Week 1): −3
- Change from Baseline in PANSS Positive Symptom Subscale Score, Mean (SD) ([2]; Week 2): −5.3 (4.7)
- Change from Baseline in PANSS Positive Symptom Subscale Score, Median ([2]; Week 2): −5
- Change from Baseline in PANSS Positive Symptom Subscale Score, Mean (SD) ([2]; Week 3): −6.3 (5.3)
- Change from Baseline in PANSS Positive Symptom Subscale Score, Median ([2]; Week 3): −6
- Change from Baseline in PANSS Positive Symptom Subscale Score, Mean (SD) ([2]; Week 4): −7.0 (5.6)
- Change from Baseline in PANSS Positive Symptom Subscale Score, Median ([2]; Week 4): −7
- Change from Baseline in PANSS Positive Symptom Subscale Score, Mean (SD) ([2]; Week 6/Endpoint): −7.2 (6.6)
- Change from Baseline in PANSS Positive Symptom Subscale Score, Median ([2]; Week 6/Endpoint): −7
- CGI Responder at Endpoint No, % ([3]; 6 mg): 48%
- CGI Responder at Endpoint Yes, % ([3]; 6 mg): 52%
- CGI-I responder rate (subjects much or very much improved) at Endpoint ([3]; risperidone 6 mg): 52%
- CGI Improvement Minimally Improved, % ([4]; Week 2): (40%)
- CGI Improvement Minimally Worse, % ([4]; Week 2): (5%)
- CGI Improvement Much Improved, % ([4]; Week 2): (30%)
- CGI Improvement Much Worse, % ([4]; Week 2): (3%)
- CGI Improvement No Change, % ([4]; Week 2): (16%)
- CGI Improvement Very Much Improved, % ([4]; Week 2): (5%)
- CGI Improvement Minimally Improved, % ([4]; Week 3): (33%)
- CGI Improvement Minimally Worse, % ([4]; Week 3): (5%)
- CGI Improvement Much Improved, % ([4]; Week 3): (36%)
- CGI Improvement Much Worse, % ([4]; Week 3): (5%)
- CGI Improvement No Change, % ([4]; Week 3): (13%)
- CGI Improvement Very Much Improved, % ([4]; Week 3): (9%)
- CGI Improvement Minimally Improved, % ([4]; Week 4): (25%)
- CGI Improvement Minimally Worse, % ([4]; Week 4): (5%)
- CGI Improvement Much Improved, % ([4]; Week 4): (38%)
- CGI Improvement Much Worse, % ([4]; Week 4): (5%)
- CGI Improvement No Change, % ([4]; Week 4): (14%)
- CGI Improvement Very Much Improved, % ([4]; Week 4): (13%)
- CGI Improvement Minimally Improved, % ([4]; Week 6/Endpoint): (23%)
- CGI Improvement Minimally Worse, % ([4]; Week 6/Endpoint): (5%)
- CGI Improvement Much Improved, % ([4]; Week 6/Endpoint): (36%)
- CGI Improvement Much Worse, % ([4]; Week 6/Endpoint): (5%)
- CGI Improvement No Change, % ([4]; Week 6/Endpoint): (15%)
- CGI Improvement Very Much Improved, % ([4]; Week 6/Endpoint): (16%)
- CGI Improvement Very Much Worse, % ([4]; Week 6/Endpoint): (<1%)
- Change from Baseline in BPRS Psychosis Cluster Score, Mean (SD) ([5]; Week 1): −2.3 (2.4)
- Change from Baseline in BPRS Psychosis Cluster Score, Median ([5]; Week 1): −2
- Change from Baseline in BPRS Psychosis Cluster Score, Mean (SD) ([5]; Week 2): −3.6 (3.0)
- Change from Baseline in BPRS Psychosis Cluster Score, Median ([5]; Week 2): −4
- Change from Baseline in BPRS Psychosis Cluster Score, Mean (SD) ([5]; Week 3): −4.3 (3.4)
- Change from Baseline in BPRS Psychosis Cluster Score, Median ([5]; Week 3): −4
- Change from Baseline in BPRS Psychosis Cluster Score, Mean (SD) ([5]; Week 4): −4.7 (3.6)
- Change from Baseline in BPRS Psychosis Cluster Score, Median ([5]; Week 4): −5
- Change from Baseline in BPRS Psychosis Cluster Score, Mean (SD) ([5]; Week 6/Endpoint): −4.9 (4.0)
- Change from Baseline in BPRS Psychosis Cluster Score, Median ([5]; Week 6/Endpoint): −5
- mean change (SD) from Baseline to Endpoint in BPRS psychosis cluster score ([5]; risperidone 6 mg, ITT): −4.9 (4.0)
- Change from Baseline in General Psychopathology Subscale Score, Mean (SD) ([6]; Week 1): −3.9 (5.6)
- Change from Baseline in General Psychopathology Subscale Score, Median ([6]; Week 1): −4
- Change from Baseline in General Psychopathology Subscale Score, Mean (SD) ([6]; Week 2): −6.7 (7.3)
- Change from Baseline in General Psychopathology Subscale Score, Median ([6]; Week 2): −6
- Change from Baseline in General Psychopathology Subscale Score, Mean (SD) ([6]; Week 3): −7.6 (7.7)
- Change from Baseline in General Psychopathology Subscale Score, Median ([6]; Week 3): −8
- Change from Baseline in General Psychopathology Subscale Score, Mean (SD) ([6]; Week 4): −8.4 (8.5)
- Change from Baseline in General Psychopathology Subscale Score, Median ([6]; Week 4): −9
- Change from Baseline in General Psychopathology Subscale Score, Mean (SD) ([6]; Week 6/Endpoint): −8.6 (9.8)
- Change from Baseline in General Psychopathology Subscale Score, Median ([6]; Week 6/Endpoint): −9
- mean change (SD) from Baseline to Endpoint in PANSS general psychopathology subscale score ([6]; risperidone 6 mg, ITT): −8.6 (9.8)
